From US9895331B2, “Prophylactic and/or therapeutic agent for radiation damage” (The University of Tokyo, priority 2012, dated 2018)

Assays:
Format in all cases: in vivo, C57BL/6 mice
[1] = tested on: mouse suffering from radiation damage; test: Assessment test for hematopoiesis-promoting effect (body weight, blood cell count by flow cytometer; 4.0 Gy); conditions: 5-ALA hydrochloride 100 mg/kg
Text: (§1) Male 8-week-old C57BL/6 mice were purchased from Japan SLC, Inc. and mice that appeared healthy by visual inspection on the day of arrival were subjected to the test. On the day after arrival, based on the body weight, the mice were divided into three groups of eight mice per group by random sampling, and further, one group was divided into four mice per cage. Also, as an untreated group, one group of four mice was kept in one cage. The mice were allowed to feed on the basic feed MF manufactured by Oriental Yeast Co., Ltd. and tap water ad libitum and reared in a rearing room at a room temperature of 23 to 24° C., a humidity of 30 to 40%, and under 12 hours of fluorescent lamp lighting.
The mice were divided into four groups, including three groups a) to c), each receiving a different drug, and an untreated group, as shown below.
Group a); Non-5-ALA administration group
Group b); 5-ALA hydrochloride 100 mg/kg body weight administration group
Group c); 5-ALA hydrochloride 100 mg+SFC 157 mg/kg body weight administration group
Using Pantac HF350 (200 KV, 20 mA Filter: Cu 0.1 mm+Al 0.5 mm), the mice were collectively irradiated with a radiation dose of 4.0 Gy on day 0.
From two days before initiation of irradiation (day −2) to day 6, water was forcedly administered to the aforementioned group a), an aqueous solution of 5-ALA hydrochloride was forcedly administered to the aforementioned group b), and an aqueous solution of 5-ALA hydrochloride and SFC was forcedly administered to the aforementioned group c) every day in the stomach through a feeding tube.
Setting the day of irradiation at day 0, the body weight was measured two days before initiation of irradiation (day −2), and on day 0, day 3, and day 6.
The group of cells obtained from the bone marrow, spleen, and thymus were analyzed by a flow cytometer. As an index for identifying each cell, the markers shown in the above [Table 2] were each used.
(§2) The results of analyzing the group of cells obtained from the bone marrow, spleen, and thymus by a flow cytometer are shown in FIG. 6. The number of bone marrow cells was counted as a sum of B cells, T cells, polymorphonuclear leukocytes (neutrophils), monocytes, and Ery I to IV. The number of thymocytes was counted as a sum of the number of CD4SP, CD8SP, DN, and DP. The number of spleen cells was counted as a sum of B cells, T cells, polymorphonuclear leukocytes (neutrophils), monocytes, and Ery I to IV.

[2] = tested on: mouse suffering from radiation damage; test: Test for studying the establishment of an assessment model (body weight, blood cell count by flow cytometer; 3.5, 4.0, 4.5 Gy)
Text: as §1, with “into 10” for “into three”, “of four” for “of eight”, “and each” for “and further, one”, “group” for “group was divided into four mice per cage. Also, as an untreated group, one group of four mice”
The mice were divided into 10 groups, including nine groups of 1) to 9), each receiving a different drug and exposed to a different radiation dose, and an untreated group, as shown below.
Groups 1) to 3); Three non-5-ALA administration groups, each irradiated with 3.5 Gy, 4.0 Gy, or 4.5 Gy
Groups 4) to 6); Three 5-ALA hydrochloride 100 mg/kg body weight administration groups, each irradiated with 3.5 Gy, 4.0 Gy, or 4.5 Gy
Groups 7) to 9); Three 5-ALA hydrochloride 100 mg+SFC 157 mg/kg body weight administration groups, each irradiated with 3.5 Gy, 4.0 Gy, or 4.5 Gy […]
Setting the day of irradiation at day 0, the body weight was measured two days before initiation of irradiation (day −2), and on day 0, day 3, day 5, and day 7.
The group of cells obtained from the bone marrow, spleen, and thymus were analyzed by a flow cytometer. […]
as §2, with “4.” for “6.”

[3] = tested on: mouse suffering from radiation damage; test: Radiation damage-alleviating effect of 5-ALA in irradiated mice (survival rate, body weight, appearance); conditions: for body weight vs non-ALA administration group / body weight, p vs non-ALA administration group: eleven days after irradiation; for body weight vs non-ALA administration group / body weight, p vs non-ALA administration group / changes in appearance: total 8 Gy
Text: Male 8-week-old C57BL/6 mice were purchased from Japan SLC, Inc. and mice that appeared healthy by visual inspection on the day of arrival were subjected to the test. On the day after arrival, based on the body weight, the mice were divided into three groups of 10 mice per group by random sampling, and further, one group was divided into three, three, and four mice per cage. The mice were allowed to feed on the basic feed MF manufactured by Oriental Yeast Co., Ltd. and tap water ad libitum and reared in a rearing room at a room temperature of 23 to 24° C., a humidity of 30 to 40%, and under 12 hours of fluorescent lamp lighting.
The mice were divided into three groups of [1] to [3], each receiving a different drug, as shown below. Group; Non-5-ALA administration group (10 mice) Group; 5-ALA hydrochloride 10 mg/kg body weight administration group (10 mice) Group; 5-ALA hydrochloride 100 mg/kg body weight administration group (10 mice)
Using Pantac HF350 (200 KV, 20 mA Filter: Cu 0.1 mm+Al 0.5 mm), the mice were irradiated with 4 Gy of radiation twice at a 3-hour interval (a total of 8 Gy).
After initiation of irradiation, water was forcedly administered to the aforementioned group, and an aqueous solution of 5-ALA hydrochloride was forcedly administered to the aforementioned groups and [3] every day in the stomach through a feeding tube.
Setting the day of irradiation at day 0, survival up to day 21 was checked. A mouse that survived for 21 days was judged as alive. […] Also, when the death was confirmed in the morning hours, the death was judged to have occurred on the previous day.
At the time of confirmation of survival in (5) above, body weight was simultaneously measured.
During the measurement in (5) above, it was examined whether there was any change in appearance between the administration group and non-administration group.

NCC(=O)CCC(=O)O [ALA, 5-aminolevulinic acid]
number of B cells among the bone marrow cells ([1]; bone marrow): tendency of improvement
number of bone marrow TER119+ erythroid progenitor cells ([1]; bone marrow): tendency of improvement
number of monocytes among the bone marrow cells ([1]; bone marrow): tendency of improvement
number of B cells among the spleen cells ([1]; spleen): statistically significant improvement
number of CD11b+ cells among the spleen cells ([1]; spleen): tendency of improvement
number of polymorphonuclear leukocytes among the spleen cells ([1]; spleen): tendency of improvement
number of the erythroid progenitor cell Ery IV among the spleen cells ([1]; spleen): improved with statistical significance
spleen cell count ([1]; without or with SFC 157 mg/kg, day -2 to day 6, vs H2O control group): significant improvement
number of T cells among the spleen cells ([1]; without or with SFC 157 mg/kg, spleen): tendency of improvement
other items of blood cell count (bone marrow, thymus, spleen; other doses and groups) ([2]; 3.5 to 4.5 Gy, vs H2O control group): no significant difference
cell count in each organ (bone marrow, spleen, thymus) ([2]; 4.0 Gy, 5-ALA hydrochloride 100 mg/kg): stable improvement tendency
spleen cell count ([2]; 4.0 Gy, 5-ALA hydrochloride 100 mg/kg, day -2 to day 6, vs H2O control group): significant improvement
survival rate, p (Logrank method) vs non-ALA administration group ([3]; 10 mg/kg, 4 Gy twice (total 8 Gy), up to day 21): 0.161
body weight vs non-ALA administration group ([3]; 10 mg/kg): significant difference
body weight, p vs non-ALA administration group ([3]; 10 mg/kg): 0.03556
changes in appearance ([3]; 10 mg/kg, vs non-ALA group): milder piloerection
survival rate ([3]; 100 mg/kg daily intragastric after irradiation, 4 Gy twice (total 8 Gy), up to day 21, vs non-ALA group): significantly improved
survival rate, p (Logrank method) vs non-ALA administration group ([3]; 100 mg/kg, 4 Gy twice (total 8 Gy), up to day 21): 0.0289
body weight vs non-ALA administration group ([3]; 100 mg/kg): significant difference
body weight, p vs non-ALA administration group ([3]; 100 mg/kg): 0.03456
changes in appearance ([3]; 100 mg/kg, vs non-ALA group): milder piloerection
